For assay [1], the target named is T1, TBK1 (Homo sapiens, UniProt Q9UHD2).
T1 sequence (Q9UHD2 1-729): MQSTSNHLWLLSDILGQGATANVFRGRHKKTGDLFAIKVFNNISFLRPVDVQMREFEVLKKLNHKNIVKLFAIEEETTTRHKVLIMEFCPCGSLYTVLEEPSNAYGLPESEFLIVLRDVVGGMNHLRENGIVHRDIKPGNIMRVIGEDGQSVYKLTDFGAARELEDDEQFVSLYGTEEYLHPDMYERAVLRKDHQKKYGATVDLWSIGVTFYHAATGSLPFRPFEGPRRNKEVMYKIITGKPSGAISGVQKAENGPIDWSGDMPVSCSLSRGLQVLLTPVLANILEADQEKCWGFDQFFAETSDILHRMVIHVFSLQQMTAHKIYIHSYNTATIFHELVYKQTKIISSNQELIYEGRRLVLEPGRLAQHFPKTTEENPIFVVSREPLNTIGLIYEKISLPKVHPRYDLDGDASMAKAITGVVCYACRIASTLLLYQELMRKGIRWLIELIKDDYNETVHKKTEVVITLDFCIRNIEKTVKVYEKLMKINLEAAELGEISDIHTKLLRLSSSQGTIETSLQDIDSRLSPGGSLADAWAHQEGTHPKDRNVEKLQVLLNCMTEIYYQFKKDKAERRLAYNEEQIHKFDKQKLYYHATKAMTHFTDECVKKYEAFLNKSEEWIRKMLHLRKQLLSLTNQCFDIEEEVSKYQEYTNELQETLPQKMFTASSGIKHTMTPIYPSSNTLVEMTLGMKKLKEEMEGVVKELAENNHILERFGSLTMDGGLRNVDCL
Nature of the assay: TBK biochemical assay. The note with it: 10 point 1:4 dose response, 30 uM top concentration, 90 min at 25° C., LabChip EZ Reader II; read-out: TBK1_IC50. In short, it runs like this: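 Read-out was a Caliper LabChip mobility-shift assay, run after a 90-min, 25 °C reaction of TBK1 with substrate and compounds, quenched with stop buffer. Control wells received staurosporine at 10 uM final.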

The target of assay [2] is T2, IKKε (Homo sapiens, UniProt Q14164).
T2 sequence (Q14164 1-716): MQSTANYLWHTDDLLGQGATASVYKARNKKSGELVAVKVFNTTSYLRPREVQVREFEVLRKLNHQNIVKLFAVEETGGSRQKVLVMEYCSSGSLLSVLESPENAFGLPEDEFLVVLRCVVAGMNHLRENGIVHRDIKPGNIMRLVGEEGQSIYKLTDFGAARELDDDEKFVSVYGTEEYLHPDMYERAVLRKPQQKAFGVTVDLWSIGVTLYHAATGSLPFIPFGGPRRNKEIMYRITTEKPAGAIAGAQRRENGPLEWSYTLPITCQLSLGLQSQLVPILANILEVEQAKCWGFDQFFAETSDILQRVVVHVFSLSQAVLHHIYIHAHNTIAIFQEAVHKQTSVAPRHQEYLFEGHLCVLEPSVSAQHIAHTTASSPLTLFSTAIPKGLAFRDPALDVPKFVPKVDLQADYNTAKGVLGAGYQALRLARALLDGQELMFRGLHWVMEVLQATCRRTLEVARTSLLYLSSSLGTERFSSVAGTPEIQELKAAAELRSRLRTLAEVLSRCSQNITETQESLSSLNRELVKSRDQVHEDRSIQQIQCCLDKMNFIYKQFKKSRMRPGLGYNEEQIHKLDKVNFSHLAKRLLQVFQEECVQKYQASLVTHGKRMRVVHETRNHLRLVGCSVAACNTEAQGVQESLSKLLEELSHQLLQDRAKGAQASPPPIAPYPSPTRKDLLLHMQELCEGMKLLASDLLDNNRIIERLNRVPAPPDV
The assay is described as follows: IKKε biochemical assay. The settings on record: 10 point 1:4 dose response, 30 uM top concentration, 90 min at 25° C., LabChip EZ Reader II; read-out: IKKε_IC50. In short, it runs like this: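 Mobility-shift LabChip read-out followed a 90 min, 25° C. reaction of IKKε with substrate and test compound, with DMSO held at 1% final. Reactions were ended with stop buffer. Wells with 10 uM final staurosporine defined complete inhibition, and DMSO-only wells the uninhibited level.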

Structures are written as SMILES.

On to `COc1nc(Nc2nccc(-c3ccc(O[C@H]4CCN(C(=O)[C@H](C)O)C[C@H]4F)c(C#N)c3)n2)ccc1N1CCN(C2COC2)CC1` [Example 199, 2-[[(3R,4S)-3-fluoro-1-[(2S)-2-hydroxypropanoyl]piperidin-4-yl]oxy]-5-[2-([6-methoxy-5-[4-(oxetan-3-yl)piperazin-1-yl]pyridin-2-yl]amino)pyrimidin-4-yl]benzonitrile], for which the IC50 in assay [1] and in assay [2] was less than 100 nM each time.
As for `COc1nc(Nc2nccc(-c3ccc(OC4CCN(C(=O)[C@@H](C)O)CC4(F)F)c(C#N)c3)n2)ccc1N1CCN(C)[C@H](C)C1` (stereo partly drawn) [Example 103, 2-[3,3-Difluoro-1-((R)-2-hydroxy-propionyl)-piperidin-4-yloxy]-5-{2-[5-((R)-3,4-dimethyl-piperazin-1-yl)-6-methoxy-pyridin-2-ylamino]-pyrimidin-4-yl}-benzonitrile], the IC50 in assay [1] and in assay [2] was less than 100 nM throughout.
For `C[C@@H](O)C(=O)N1CCC(Oc2ccc(-c3ccnc(Nc4ccc(N5CCN(C6COC6)CC5)cc4)n3)cc2C#N)C1` (stereo partly drawn) [Example 179, 2-([1-[(2R)-2-hydroxypropanoyl]pyrrolidin-3-yl]oxy)-5-[2-([4-[4-(oxetan-3-yl)piperazin-1-yl]phenyl]amino)pyrimidin-4-yl]benzonitrile], the IC50 in assay [1] and in assay [2] was less than 100 nM in each case.
For the molecule `COc1cc(Nc2nccc(-c3ccc(O[C@@H]4CCN(C(=O)[C@@H](C)O)CC4(F)F)c(C#N)c3)n2)ccn1` [Example 231, 2-((R)-3,3-difluoro-1-((R)-2-hydroxypropanoyl)piperidin-4-yloxy)-5-(2-(2-methoxypyridin-4-ylamino)pyrimidin-4-yl)benzonitrile], the IC50 in assay [1] and in assay [2] was less than 100 nM in each case.
Consider `COc1nc(Nc2nccc(-c3ccc(OC4CCN(C(=O)CO)CC4)c(C#N)c3)n2)ccc1N1CCN(C)CC1` [Example 90, 2-[[1-(2-hydroxyacetyl)piperidin-4-yl]oxy]-5-(2-[[6-methoxy-5-(4-methylpiperazin-1-yl)pyridin-2-yl]amino]pyrimidin-4-yl)benzonitrile], for which the IC50 in assay [1] and in assay [2] was less than 100 nM throughout.
In the case of `N#Cc1cc(-c2ccnc(Nc3ccc(N4CCN(C5COC5)CC4)cc3)n2)ccc1OC1CCOCC1` [Example 135, 2-(oxan-4-yloxy)-5-[2-([4-[4-(oxetan-3-yl)piperazin-1-yl]phenyl]amino)pyrimidin-4-yl]benzonitrile], the IC50 in assay [1] and in assay [2] was less than 100 nM in each case.
With `C[C@@H](O)C(=O)N1CC(Oc2ccc(-c3ccnc(Nc4ccc(N5CCN(C6COC6)CC5)cc4)n3)cc2C#N)C1` [Example 173, 2-([1-[(2R)-2-hydroxypropanoyl]azetidin-3-yl]oxy)-5-[2-([4-[4-(oxetan-3-yl)piperazin-1-yl]phenyl]amino)pyrimidin-4-yl]benzonitrile], the IC50 in assay [1] and in assay [2] was 100 to 1000 nM in each case.
`COc1nc(Nc2nccc(-c3ccc(OC4CCN(C(=O)[C@H](C)O)CC4(F)F)c(C#N)c3)n2)ccc1N1CCN(C)[C@@H](C)C1` (stereo partly drawn) [Example 105, 2-[3,3-Difluoro-1-((S)-2-hydroxy-propionyl)-piperidin-4-yloxy]-5-{2-[5-((S)-3,4-dimethyl-piperazin-1-yl)-6-methoxy-pyridin-2-ylamino]-pyrimidin-4-yl}-benzonitrile]: the IC50 in assay [1] and in assay [2] was less than 100 nM in each case.
With `COc1nc(Nc2nccc(-c3ccc(OC4CCN(C(=O)[C@@H](O)CO)CC4(F)F)c(C#N)c3)n2)ccc1N1CCN(C2COC2)CC1` (stereo partly drawn) [Example 260, 2-[1-((S)-2,3-Dihydroxy-propionyl)-3,3-difluoro-piperidin-4-yloxy]-5-{2-[6-methoxy-5-(4-oxetan-3-yl-piperazin-1-yl)-pyridin-2-ylamino]-pyrimidin-4-yl}-benzonitrile], the IC50 in assay [1] and in assay [2] was less than 100 nM throughout.
On to `COc1nccc(Nc2nccc(-c3ccc(OC4CCN(C(=O)[C@H](C)O)CC4(F)F)c(C#N)c3)n2)n1` (stereo partly shown) [Example 233], for which the IC50 in assay [1] and in assay [2] was less than 100 nM in each case.
Consider `COc1nc(Nc2nccc(-c3ccc(OC4CCN(C(=O)CC#N)CC4(F)F)c(C#N)c3)n2)ccc1N1CCN(C2COC2)CC1` (stereo not shown) [Example 253, 2-[1-(2-Cyano-acetyl)-3,3-difluoro-piperidin-4-yloxy]-5-{2-[6-methoxy-5-(4-oxetan-3-yl-piperazin-1-yl)-pyridin-2-ylamino]-pyrimidin-4-yl}-benzonitrile], for which the IC50 in assay [1] and in assay [2] was less than 100 nM in each case.
`COc1nc(Nc2nccc(-c3ccc(OC4CCOCC4)c(C#N)c3)n2)ccc1C(=O)NC1CCCC1O` (stereo not shown) [Example 9, 6-{4-[3-Cyano-4-(tetrahydro-pyran-4-yloxy)-phenyl]-pyrimidin-2-ylamino}-N-(2-hydroxy-cyclopentyl)-2-methoxy-nicotinamide]: the IC50 in assay [1] and in assay [2] was less than 100 nM in each case.
`COc1nc(Nc2nccc(-c3cnc(OC4CCN(C(=O)[C@H](C)O)CC4(F)F)c(C#N)c3)n2)ccc1N1CCN(C2COC2)CC1` (stereo partly drawn) [Example 305, 2-([3,3-difluoro-1-[(2S)-2-hydroxypropanoyl]piperidin-4-yl]oxy)-5-[2-([6-methoxy-5-[4-(oxetan-3-yl)piperazin-1-yl]pyridin-2-yl]amino)pyrimidin-4-yl]pyridine-3-carbonitrile]: the IC50 in assay [1] and in assay [2] was less than 100 nM throughout.
On to `COc1nc(Nc2nccc(-c3ccc(O[C@@H]4CCNC[C@@H]4F)c(C#N)c3)n2)ccc1C1CCN(C2COC2)CC1` [Example 235, 2-((3S,4R)-3-Fluoro-piperidin-4-yloxy)-5-[2-(2-methoxy-1′-oxetan-3-yl-1′,2′,3′,4′,5′,6′-hexahydro-[3,4′]bipyridinyl-6-ylamino)-pyrimidin-4-yl]-benzonitrile], for which the IC50 in assay [1] and in assay [2] was 100 to 1000 nM throughout.
In the case of `COc1nc(Nc2nccc(-c3ccc(OC4CCN(C(=O)[C@@H](C)CO)CC4(F)F)c(C#N)c3)n2)ccc1N1CCN(C2COC2)CC1` (stereo partly drawn) [Example 252, 2-[3,3-Difluoro-1-((S)-3-hydroxy-2-methyl-propionyl)-piperidin-4-yloxy]-5-{2-[6-methoxy-5-(4-oxetan-3-yl-piperazin-1-yl)-pyridin-2-ylamino]-pyrimidin-4-yl}-benzonitrile], the IC50 in assay [1] and in assay [2] was less than 100 nM each time.
With `COc1nc(Nc2nccc(-c3ccc(OC4CCNCC4(F)F)c(C#N)c3)n2)ccc1N1CCN(C)CC1` (stereo not shown) [Example 97, 2-[(3,3-difluoropiperidin-4-yl)oxy]-5-(2-[[6-methoxy-5-(4-methylpiperazin-1-yl)pyridin-2-yl]amino]pyrimidin-4-yl)benzonitrile], the IC50 in assay [1] and in assay [2] was less than 100 nM throughout.
As to `N#Cc1cc(-c2ccnc(Nc3ccc(N4CCN(C5COC5)CC4)cc3)n2)ccc1OC1CCOC1` (stereo not shown) [Example 161, 5-[2-([4-[4-(oxetan-3-yl)piperazin-1-yl]phenyl]amino)pyrimidin-4-yl]-2-(oxolan-3-yloxy)benzonitrile], the IC50 in assay [1] and in assay [2] was less than 100 nM each time.

Source of the values: patent US20230019491A1, “PYRIMIDINE TBK/IKKe INHIBITOR COMPOUNDS AND USES THEREOF” (Merck Patent GmbH, priority 2017, published 2023).
